According to PubChem BioAssay (NCI):
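In this assay, cells in 96-well plates receive the compound at five concentrations for 48 hours. Endpoints are linearly interpolated between the surrounding concentrations. GI50: concentration for 50% inhibition of growth. At the TGI there is no net growth.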

Legend:
Test in all cases: growth of human tumour cells (NCI), 48 h
SK-MEL-5 melanoma = tested on: SK-MEL-5 melanoma
UO-31 renal = tested on: UO-31 renal
CCRF-CEM leukemia = tested on: CCRF-CEM leukemia
SK-MEL-2 melanoma = tested on: SK-MEL-2 melanoma
MDA-MB-468 breast = tested on: MDA-MB-468 breast
K-562 leukemia = tested on: K-562 leukemia
SK-OV-3 ovarian = tested on: SK-OV-3 ovarian
SW-620 colon = tested on: SW-620 colon
SN12C renal = tested on: SN12C renal
HCC-2998 colon = tested on: HCC-2998 colon
KM12 colon = tested on: KM12 colon
M14 melanoma = tested on: M14 melanoma
OVCAR-4 ovarian = tested on: OVCAR-4 ovarian
A498 renal = tested on: A498 renal
UACC-257 melanoma = tested on: UACC-257 melanoma
TK-10 renal = tested on: TK-10 renal
RPMI-8226 leukemia = tested on: RPMI-8226 leukemia
OVCAR-3 ovarian = tested on: OVCAR-3 ovarian
NCI-H460 lung = tested on: NCI-H460 lung
PC-3 prostate = tested on: PC-3 prostate
NCI/ADR-RES ovarian = tested on: NCI/ADR-RES ovarian
786-0 renal = tested on: 786-0 renal
HL-60(TB) leukemia = tested on: HL-60(TB) leukemia
CAKI-1 renal = tested on: CAKI-1 renal
MDA-MB-231 breast = tested on: MDA-MB-231 breast
HCT-116 colon = tested on: HCT-116 colon
NCI-H226 lung = tested on: NCI-H226 lung
ACHN renal = tested on: ACHN renal
LOX IMVI melanoma = tested on: LOX IMVI melanoma
HOP-92 NSCLC = tested on: HOP-92 NSCLC
DU-145 prostate = tested on: DU-145 prostate
HCT-15 colon = tested on: HCT-15 colon
HOP-62 NSCLC = tested on: HOP-62 NSCLC
MDA-MB-435 = tested on: MDA-MB-435
SF-539 CNS = tested on: SF-539 CNS
COLO 205 colon = tested on: COLO 205 colon
HT29 colon = tested on: HT29 colon
RXF 393 renal = tested on: RXF 393 renal
NCI-H23 lung = tested on: NCI-H23 lung
OVCAR-8 ovarian = tested on: OVCAR-8 ovarian
NCI-H522 lung = tested on: NCI-H522 lung
BT-549 breast = tested on: BT-549 breast
SNB-75 CNS = tested on: SNB-75 CNS
EKVX NSCLC = tested on: EKVX NSCLC
U251 CNS = tested on: U251 CNS
T-47D breast = tested on: T-47D breast
A549 NSCLC = tested on: A549 NSCLC
MOLT-4 leukemia = tested on: MOLT-4 leukemia
SNB-19 CNS = tested on: SNB-19 CNS
MCF7 breast = tested on: MCF7 breast
IGROV1 ovarian = tested on: IGROV1 ovarian
UACC-62 melanoma = tested on: UACC-62 melanoma
HS 578T breast = tested on: HS 578T breast
OVCAR-5 ovarian = tested on: OVCAR-5 ovarian
SR leukemia = tested on: SR leukemia
SK-MEL-28 melanoma = tested on: SK-MEL-28 melanoma
SF-268 CNS = tested on: SF-268 CNS
MALME-3M melanoma = tested on: MALME-3M melanoma

## O=C(CSc1nnc(-c2ccc(-c3nc4ccc(Cl)cc4[nH]3)cc2)o1)Nc1ccccc1
SK-MEL-5 melanoma
  GI50: 3.72 µM
  TGI: 14.5 µM
UO-31 renal
  GI50: 10.8 µM
  TGI: 22.9 µM
CCRF-CEM leukemia
  GI50: 7.3 µM
  TGI: 68.8 µM
SK-MEL-2 melanoma
  GI50: 14.9 µM
  TGI: 30.5 µM
MDA-MB-468 breast
  GI50: 15.6 µM
  TGI: 30 µM
K-562 leukemia
  GI50: 3.58 µM
  TGI: > 100 µM
SK-OV-3 ovarian
  GI50: 3.97 µM
  TGI: 14.9 µM
SW-620 colon
  GI50: 3.54 µM
  TGI: 15.9 µM
SN12C renal
  GI50: 3.26 µM
  TGI: 13.8 µM
HCC-2998 colon
  GI50: 32.8 µM
  TGI: > 100 µM
KM12 colon
  GI50: 8.4 µM
  TGI: 27.4 µM
M14 melanoma
  GI50: 3.39 µM
  TGI: 14.1 µM
OVCAR-4 ovarian
  GI50: 3.02 µM
  TGI: 11 µM
A498 renal
  GI50: 15.2 µM
  TGI: 28.5 µM
UACC-257 melanoma
  GI50: 5.91 µM
  TGI: 21.8 µM
TK-10 renal
  GI50: 20.9 µM
  TGI: 39 µM
RPMI-8226 leukemia
  GI50: 15.5 µM
  TGI: > 100 µM
OVCAR-3 ovarian
  GI50: 3.3 µM
  TGI: 11.3 µM
NCI-H460 lung
  GI50: 0.9 µM
  TGI: 2.97 µM
PC-3 prostate
  GI50: 1.82 µM
  TGI: 5.04 µM
NCI/ADR-RES ovarian
  GI50: 9.04 µM
  TGI: 43.5 µM
786-0 renal
  GI50: 1.52 µM
  TGI: 3.44 µM
HL-60(TB) leukemia
  GI50: 16.4 µM
  TGI: > 100 µM
CAKI-1 renal
  GI50: 1.9 µM
  TGI: 3.89 µM
MDA-MB-231 breast
  GI50: 3.26 µM
  TGI: 11.9 µM
HCT-116 colon
  GI50: 3.95 µM
  TGI: 41.1 µM
NCI-H226 lung
  GI50: 1.87 µM
  TGI: 5.28 µM
ACHN renal
  GI50: 2.64 µM
  TGI: 11 µM
LOX IMVI melanoma
  GI50: 1.83 µM
  TGI: 4.48 µM
HOP-92 NSCLC
  GI50: 2.33 µM
  TGI: 8.78 µM
DU-145 prostate
  GI50: 2.44 µM
  TGI: 5.48 µM
HCT-15 colon
  GI50: 8.35 µM
  TGI: > 100 µM
HOP-62 NSCLC
  GI50: 2.18 µM
  TGI: 5.54 µM
MDA-MB-435
  GI50: 2.17 µM
  TGI: 7.11 µM
SF-539 CNS
  GI50: 2.24 µM
  TGI: 5.74 µM
COLO 205 colon
  GI50: 14.9 µM
  TGI: 41.9 µM
HT29 colon
  GI50: 4.5 µM
  TGI: 53.6 µM
RXF 393 renal
  GI50: 2.38 µM
  TGI: 6.52 µM
NCI-H23 lung
  GI50: 3.04 µM
  TGI: 10.1 µM
OVCAR-8 ovarian
  GI50: 3.88 µM
  TGI: 18 µM
NCI-H522 lung
  GI50: 2.74 µM
  TGI: 10.6 µM
BT-549 breast
  GI50: 2.98 µM
  TGI: 17 µM
SNB-75 CNS
  GI50: 1.65 µM
  TGI: 4.8 µM
EKVX NSCLC
  GI50: 4.86 µM
  TGI: 25.6 µM
U251 CNS
  GI50: 4.54 µM
  TGI: 17.9 µM
T-47D breast
  GI50: 17.1 µM
  TGI: 41.4 µM
A549 NSCLC
  GI50: 2.57 µM
  TGI: 11.3 µM
MOLT-4 leukemia
  GI50: 8.63 µM
  TGI: > 100 µM
SNB-19 CNS
  GI50: 3.26 µM
  TGI: 12.2 µM
MCF7 breast
  GI50: 7.37 µM
  TGI: > 100 µM
IGROV1 ovarian
  GI50: 13.5 µM
  TGI: 28.5 µM
UACC-62 melanoma
  GI50: 6.71 µM
  TGI: 19.5 µM
HS 578T breast
  GI50: 2.92 µM
  TGI: 13.9 µM
OVCAR-5 ovarian
  GI50: 7.42 µM
  TGI: 27.2 µM
SR leukemia
  GI50: 16.3 µM
  TGI: > 100 µM
SK-MEL-28 melanoma
  GI50: 2.52 µM
  TGI: 7.01 µM
SF-268 CNS
  GI50: 2.44 µM
  TGI: 6.71 µM
MALME-3M melanoma
  GI50: 1.99 µM
  TGI: 5.34 µM
